Patent publication US20040157772A1, “Use of a gatran for the manufacture of a medicament of the treatment of pulmonary fibrosis” (priority 2001, published 2004)

Legend:
[1] = Concentration of inogatran in plasma on day 6; assay type: in vivo; settings: Sprague-Dawley, rat, iv, rats, constant i.v. infusion 5 μmol/kg/h from Alzet pumps, day 6 after implantation, approximately
Protocol: (§1) Group 4—12 rats—received bleomycin induction as above, plus a constant i.v. infusion of inogatran (5 μmol/kg/h) loaded in Alzet® 2ML2 pumps at a concentration of 200 μmol/mL (88 mg/mL) in 0.9% NaCl (only 8 animals were ultimately used, the other 4 were used for different purposes).
Plasma and bronchiolar lavage fluid (BAL) were collected from four rats in groups 3 and 4, and from two rats in group 1, six days after induction, for quantification of plasma concentration of compound and thrombin activity in BAL.
Concentration of inogatran in plasma on day 6.

[2] = system: bleomycin-induced lung fibrosis; test: Bleomycin-induced lung fibrosis model in rats, inogatran by constant i.v. infusion; assay type: in vivo, Sprague Dawley rats
Protocol: Forty male Sprague Dawley rats weighing 200 g were kept in cages (2 rats/cage) covered with filter tops to prevent spreading of carcinogenic metabolites of bleomycin. The rats had free access to food and water.
The rats were split into four groups:
Group 1—8 rats—received 0.9% NaCl (1 mL/kg) as a control (only 6 animals were ultimately used, the other 2 were used for different purposes).
Group 2—8 rats—received induction by way of an i.t. 2.5 mg/kg (1 mL/kg) bleomycin instillation (a 15 IE injection solution (Lundbeck)).
Group 3—12 rats—received bleomycin induction as above, plus a constant i.v. infusion of 0.9% NaCl solution (5.0 μL/h) (only 8 animals were ultimately used, the other 4 were used for different purposes).
as §1
The rats were anaesthetised by way of an i.p. injection (2 mL/kg) of Ketalar™ (50 mg/mL ketamin; Parke-Davis)/Rompun.vet™ (20 mg/mL xylazin; Bayer) (1.75 mL/0.35 mL). A pre-filled minipump connected to a PE60 catheter was inserted into the jugularis vein. A s.c. pocket was created on the back of the animal. The pump was led into this pocket. The incision on the neck was closed with wound clips.
The pre-filled pump with catheter was incubated in 37° C. 0.9% NaCl overnight before implantation to enable immediate pumping after surgery. This was to avoid clotting in the catheter.
After 14 days, all rats received an overdose of pentobarbital (i.p.). The rats were weighed and the lung was dissected and weighed. One lobe was placed in Histofix™ (buffered 5% formaldehyde solution) for histological examination. […]
The following parameters were measured: […]
Total collagen (quantification of hydroxyproline according to the procedure described in Stegemann-Stadler et al, Determinations of Hydroxyproline, Clin. Chim. Acta (1967) 18, 267-273).

concentration at 6 day [1]: 2 to 7 µM
SMILES: N=C(N)NCCCNC(=O)[C@@H]1CCCCN1C(=O)[C@@H](CC1CCCCC1)NCC(=O)O [inogatran, HOOC—CH2-(R)Cha-Pic-Nag-H]
hydroxyproline content in the lungs (total collagen) ([2]; bleomycin i.t. 2.5 mg/kg, constant i.v. infusion 5 μmol/kg/h, day 14, vehicle control 2.34±0.14, P=0.0008): 1.37±0.10 μg/mg tissue
inhibition of collagen deposition ([2]; bleomycin-induced rats, constant i.v. infusion, day 14): almost complete inhibition
effect on total lung weight (wet-weight) ([2]; bleomycin-induced rats, inogatran 4-5 μmol/kg/hr): no effect
